PubChem BioAssay AID2060900 (Molecular Pharmacology Branch, DTP, NCI, 2025)

These compounds were tested on 521955-158-R2-J5-PDC complex spheroids, viability (assay: Anticancer human tumor 521955-158-R2-J5-PDC patient-derived pancreatic carcinoma cell line growth inhibition [RAS]). Conditions: second compound 1 µM; first compound 0.00316 µM; active compounds read low.
Procedure, shortened: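 Multi-cell-type spheroids: tumor cells plus HUVEC endothelial cells and mesenchymal stem cells. RAS-pathway inhibitors were combined with targeted agents, each dosed in half-log steps down from clinical Cmax, or from 10 microM when Cmax was unknown.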
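Also: spheroids also contain HUVEC endothelial cells and mesenchymal stem cells as stroma; compound exposure lasted seven days before the viability read.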

Question: For `O=C(c1ccc(F)c(F)c1Nc1ccc(I)cc1F)N1CC(O)([C@@H]2CCCCN2)C1` + C=CC(=O)N1CCN(c2nc(OCC3CCCN3C)nc3c(F)c(-c4nc(N)cc(C)c4C(F)(F)F)c(Cl)cc23)C(C)C1, which viability, T/C is on record?
Answer: 80.2%

Same assay, conditions: second compound 1 µM; first compound 0.01 µM; active compounds read low

Question: How did the viability, T/C turn out when `CC(C)n1nc(-c2ccc3oc(N)nc3c2)c2c(N)ncnc21` + C=CC(=O)N1CCN(c2nc(OCC3CCCN3C)nc3c(F)c(-c4nc(N)cc(C)c4C(F)(F)F)c(Cl)cc23)C(C)C1 was run?
Answer: 79.2%

Question: Which viability, T/C does the source give for `O=C(c1ccc(F)c(F)c1Nc1ccc(I)cc1F)N1CC(O)([C@@H]2CCCCN2)C1` + C=CC(=O)N1CCN(c2nc(OCC3CCCN3C)nc3c(F)c(-c4nc(N)cc(C)c4C(F)(F)F)c(Cl)cc23)C(C)C1 here?
Answer: 65.4%

Same assay, conditions: second compound 1 µM; first compound 0.0316 µM; active compounds read low

Question: How did the viability, T/C turn out when `CC(C)NCC(C(=O)N1CCN(c2ncnc3c2C(C)CC3O)CC1)c1ccc(Cl)cc1` (configuration not stated) + C=CC(=O)N1CCN(c2nc(OCC3CCCN3C)nc3c(F)c(-c4nc(N)cc(C)c4C(F)(F)F)c(Cl)cc23)C(C)C1 was run?
Answer: 103%

Question: How did the viability, T/C turn out when `CC(C)n1nc(-c2ccc3oc(N)nc3c2)c2c(N)ncnc21` + C=CC(=O)N1CCN(c2nc(OCC3CCCN3C)nc3c(F)c(-c4nc(N)cc(C)c4C(F)(F)F)c(Cl)cc23)C(C)C1 was run?
Answer: 42.4%

Question: How did the viability, T/C turn out when `CC(Nc1ccc2c(c1)OCCn1cc(N3C(=O)OCC3C(F)F)nc1-2)C(N)=O` (configuration not stated) + C=CC(=O)N1CCN(c2nc(OCC3CCCN3C)nc3c(F)c(-c4nc(N)cc(C)c4C(F)(F)F)c(Cl)cc23)C(C)C1 was run?
Answer: 124%

Question: Which viability, T/C does the source give for `C[C@@H](NC(=O)c1ncnc(N)c1Cl)c1ncc(C(=O)Nc2cc(C(F)(F)F)c(Cl)cn2)s1` + C=CC(=O)N1CCN(c2nc(OCC3CCCN3C)nc3c(F)c(-c4nc(N)cc(C)c4C(F)(F)F)c(Cl)cc23)C(C)C1 here?
Answer: 198%

Question: Which viability, T/C does the source give for `O=C(c1ccc(F)c(F)c1Nc1ccc(I)cc1F)N1CC(O)([C@@H]2CCCCN2)C1` + C=CC(=O)N1CCN(c2nc(OCC3CCCN3C)nc3c(F)c(-c4nc(N)cc(C)c4C(F)(F)F)c(Cl)cc23)C(C)C1 here?
Answer: 42.6%

Same assay, conditions: second compound 1 µM; first compound 0.1 µM; active compounds read low

Question: With `CC(C)NCC(C(=O)N1CCN(c2ncnc3c2C(C)CC3O)CC1)c1ccc(Cl)cc1` (configuration not stated) + C=CC(=O)N1CCN(c2nc(OCC3CCCN3C)nc3c(F)c(-c4nc(N)cc(C)c4C(F)(F)F)c(Cl)cc23)C(C)C1 as the compound, how does the viability, T/C read?
Answer: 80.2%

Question: How did the viability, T/C turn out when `CC(C)n1nc(-c2ccc3oc(N)nc3c2)c2c(N)ncnc21` + C=CC(=O)N1CCN(c2nc(OCC3CCCN3C)nc3c(F)c(-c4nc(N)cc(C)c4C(F)(F)F)c(Cl)cc23)C(C)C1 was run?
Answer: 28.8%

Question: How did the viability, T/C turn out when `CC(Nc1ccc2c(c1)OCCn1cc(N3C(=O)OCC3C(F)F)nc1-2)C(N)=O` (configuration not stated) + C=CC(=O)N1CCN(c2nc(OCC3CCCN3C)nc3c(F)c(-c4nc(N)cc(C)c4C(F)(F)F)c(Cl)cc23)C(C)C1 was run?
Answer: 53.4%

Question: `C[C@@H](NC(=O)c1ncnc(N)c1Cl)c1ncc(C(=O)Nc2cc(C(F)(F)F)c(Cl)cn2)s1` + C=CC(=O)N1CCN(c2nc(OCC3CCCN3C)nc3c(F)c(-c4nc(N)cc(C)c4C(F)(F)F)c(Cl)cc23)C(C)C1 was tested. Which viability, T/C did it give?
Answer: 93.3%

Question: Which viability, T/C does the source give for `O=C(c1ccc(F)c(F)c1Nc1ccc(I)cc1F)N1CC(O)([C@@H]2CCCCN2)C1` + C=CC(=O)N1CCN(c2nc(OCC3CCCN3C)nc3c(F)c(-c4nc(N)cc(C)c4C(F)(F)F)c(Cl)cc23)C(C)C1 here?
Answer: 39.3%

Same assay, conditions: second compound 1 µM; first compound 0.316 µM; active compounds read low

Question: `CC(C)NCC(C(=O)N1CCN(c2ncnc3c2C(C)CC3O)CC1)c1ccc(Cl)cc1` (configuration not stated) + C=CC(=O)N1CCN(c2nc(OCC3CCCN3C)nc3c(F)c(-c4nc(N)cc(C)c4C(F)(F)F)c(Cl)cc23)C(C)C1 was tested. Which viability, T/C did it give?
Answer: 104%

Question: Which viability, T/C does the source give for `CC(Nc1ccc2c(c1)OCCn1cc(N3C(=O)OCC3C(F)F)nc1-2)C(N)=O` (configuration not stated) + C=CC(=O)N1CCN(c2nc(OCC3CCCN3C)nc3c(F)c(-c4nc(N)cc(C)c4C(F)(F)F)c(Cl)cc23)C(C)C1 here?
Answer: 48.9%

Question: For `C[C@@H](NC(=O)c1ncnc(N)c1Cl)c1ncc(C(=O)Nc2cc(C(F)(F)F)c(Cl)cn2)s1` + C=CC(=O)N1CCN(c2nc(OCC3CCCN3C)nc3c(F)c(-c4nc(N)cc(C)c4C(F)(F)F)c(Cl)cc23)C(C)C1, which viability, T/C is on record?
Answer: 88.5%

Question: `O=C(c1ccc(F)c(F)c1Nc1ccc(I)cc1F)N1CC(O)([C@@H]2CCCCN2)C1` + C=CC(=O)N1CCN(c2nc(OCC3CCCN3C)nc3c(F)c(-c4nc(N)cc(C)c4C(F)(F)F)c(Cl)cc23)C(C)C1 was tested. Which viability, T/C did it give?
Answer: 32.5%

Same assay, conditions: second compound 1 µM; first compound 1 µM; active compounds read low

Question: `CC(C)NCC(C(=O)N1CCN(c2ncnc3c2C(C)CC3O)CC1)c1ccc(Cl)cc1` (configuration not stated) + C=CC(=O)N1CCN(c2nc(OCC3CCCN3C)nc3c(F)c(-c4nc(N)cc(C)c4C(F)(F)F)c(Cl)cc23)C(C)C1 was tested. Which viability, T/C did it give?
Answer: 71.3%

Question: For `CC(Nc1ccc2c(c1)OCCn1cc(N3C(=O)OCC3C(F)F)nc1-2)C(N)=O` (configuration not stated) + C=CC(=O)N1CCN(c2nc(OCC3CCCN3C)nc3c(F)c(-c4nc(N)cc(C)c4C(F)(F)F)c(Cl)cc23)C(C)C1, which viability, T/C is on record?
Answer: 35.4%

Question: `C[C@@H](NC(=O)c1ncnc(N)c1Cl)c1ncc(C(=O)Nc2cc(C(F)(F)F)c(Cl)cn2)s1` + C=CC(=O)N1CCN(c2nc(OCC3CCCN3C)nc3c(F)c(-c4nc(N)cc(C)c4C(F)(F)F)c(Cl)cc23)C(C)C1 was tested. Which viability, T/C did it give?
Answer: 76.5%

Question: Which viability, T/C does the source give for `O=C(c1ccc(F)c(F)c1Nc1ccc(I)cc1F)N1CC(O)([C@@H]2CCCCN2)C1` + C=CC(=O)N1CCN(c2nc(OCC3CCCN3C)nc3c(F)c(-c4nc(N)cc(C)c4C(F)(F)F)c(Cl)cc23)C(C)C1 here?
Answer: 22.6%

Same assay, conditions: second compound 1 µM; first compound 3.16 µM; active compounds read low

Question: How did the viability, T/C turn out when `CC(C)NCC(C(=O)N1CCN(c2ncnc3c2C(C)CC3O)CC1)c1ccc(Cl)cc1` (configuration not stated) + C=CC(=O)N1CCN(c2nc(OCC3CCCN3C)nc3c(F)c(-c4nc(N)cc(C)c4C(F)(F)F)c(Cl)cc23)C(C)C1 was run?
Answer: 61.9%

Question: With `CC(Nc1ccc2c(c1)OCCn1cc(N3C(=O)OCC3C(F)F)nc1-2)C(N)=O` (configuration not stated) + C=CC(=O)N1CCN(c2nc(OCC3CCCN3C)nc3c(F)c(-c4nc(N)cc(C)c4C(F)(F)F)c(Cl)cc23)C(C)C1 as the compound, how does the viability, T/C read?
Answer: 33%

Question: How did the viability, T/C turn out when `C[C@@H](NC(=O)c1ncnc(N)c1Cl)c1ncc(C(=O)Nc2cc(C(F)(F)F)c(Cl)cn2)s1` + C=CC(=O)N1CCN(c2nc(OCC3CCCN3C)nc3c(F)c(-c4nc(N)cc(C)c4C(F)(F)F)c(Cl)cc23)C(C)C1 was run?
Answer: 74.2%

Same assay, conditions: second compound 1 µM; first compound 10 µM; active compounds read low

Question: Which viability, T/C does the source give for `CC(C)NCC(C(=O)N1CCN(c2ncnc3c2C(C)CC3O)CC1)c1ccc(Cl)cc1` (configuration not stated) + C=CC(=O)N1CCN(c2nc(OCC3CCCN3C)nc3c(F)c(-c4nc(N)cc(C)c4C(F)(F)F)c(Cl)cc23)C(C)C1 here?
Answer: 55.3%

Question: With `CC(Nc1ccc2c(c1)OCCn1cc(N3C(=O)OCC3C(F)F)nc1-2)C(N)=O` (configuration not stated) + C=CC(=O)N1CCN(c2nc(OCC3CCCN3C)nc3c(F)c(-c4nc(N)cc(C)c4C(F)(F)F)c(Cl)cc23)C(C)C1 as the compound, how does the viability, T/C read?
Answer: 19.8%

Question: `C[C@@H](NC(=O)c1ncnc(N)c1Cl)c1ncc(C(=O)Nc2cc(C(F)(F)F)c(Cl)cn2)s1` + C=CC(=O)N1CCN(c2nc(OCC3CCCN3C)nc3c(F)c(-c4nc(N)cc(C)c4C(F)(F)F)c(Cl)cc23)C(C)C1 was tested. Which viability, T/C did it give?
Answer: 56.6%
